Laboratory results reported in paper PMC3961306, “Comparison of the Cancer Gene Targeting and Biochemical Selectivities of All Targeted Kinase Inhibitors Approved for Clinical Use” (PLoS ONE, 2014).

How the values were obtained:
Assay in all cases: Kinase profiling in a biochemical assay panel (mobility shift assays and ELISA), %-inhibition at 1 μM; selectivity entropy
[1] = molecular target: panel of more than 300 wild-type and mutant kinases (313 kinase panel) (Homo sapiens, UniProt Q9HCP0)
[2] = molecular target: panel of more than 300 wild-type and mutant kinases (313 kinase panel) (Homo sapiens, UniProt P17948); conditions: kinase FLT1; compound at 1 μM
[3] = molecular target: panel of more than 300 wild-type and mutant kinases (313 kinase panel) (Homo sapiens, UniProt Q9BUB5)
[4] = molecular target: panel of more than 300 wild-type and mutant kinases (313 kinase panel) (Homo sapiens, UniProt Q16539)
[5] = molecular target: panel of more than 300 wild-type and mutant kinases (313 kinase panel) (Homo sapiens, UniProt P49674); conditions: kinase CK1ε; 1 μM compound
[6] = molecular target: T1, panel of more than 300 wild-type and mutant kinases (313 kinase panel) (Homo sapiens, UniProt Q9UF33)
T1 sequence (Q9UF33 23-1036): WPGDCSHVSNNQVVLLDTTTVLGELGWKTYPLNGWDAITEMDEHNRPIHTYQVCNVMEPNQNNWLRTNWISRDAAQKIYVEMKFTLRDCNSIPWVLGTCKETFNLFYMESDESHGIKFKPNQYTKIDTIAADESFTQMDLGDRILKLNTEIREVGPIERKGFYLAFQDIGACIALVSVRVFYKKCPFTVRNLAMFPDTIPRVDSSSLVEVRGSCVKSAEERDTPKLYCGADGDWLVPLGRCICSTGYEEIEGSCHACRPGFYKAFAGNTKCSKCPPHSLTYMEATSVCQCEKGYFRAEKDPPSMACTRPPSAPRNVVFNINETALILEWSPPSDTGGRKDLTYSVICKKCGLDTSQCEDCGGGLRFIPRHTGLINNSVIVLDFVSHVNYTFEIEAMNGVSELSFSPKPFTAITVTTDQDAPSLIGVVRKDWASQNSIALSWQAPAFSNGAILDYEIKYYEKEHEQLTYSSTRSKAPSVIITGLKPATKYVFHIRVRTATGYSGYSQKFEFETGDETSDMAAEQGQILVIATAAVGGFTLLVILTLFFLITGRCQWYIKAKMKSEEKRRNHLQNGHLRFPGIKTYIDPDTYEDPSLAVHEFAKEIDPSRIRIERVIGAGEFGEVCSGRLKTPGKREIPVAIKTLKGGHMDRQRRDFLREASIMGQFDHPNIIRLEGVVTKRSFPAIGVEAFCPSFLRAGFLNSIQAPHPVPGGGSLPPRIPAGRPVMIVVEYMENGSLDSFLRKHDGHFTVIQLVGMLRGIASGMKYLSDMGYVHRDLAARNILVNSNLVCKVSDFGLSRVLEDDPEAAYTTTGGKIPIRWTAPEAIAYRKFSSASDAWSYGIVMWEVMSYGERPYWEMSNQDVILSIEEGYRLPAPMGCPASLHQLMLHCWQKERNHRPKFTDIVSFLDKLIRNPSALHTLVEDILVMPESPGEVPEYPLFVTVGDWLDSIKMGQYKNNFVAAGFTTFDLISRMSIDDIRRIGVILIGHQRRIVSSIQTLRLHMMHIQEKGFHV

[7] = molecular target: panel of more than 300 wild-type and mutant kinases (313 kinase panel) (Homo sapiens, UniProt P51957); conditions: kinase NEK4; 1 μM
[8] = molecular target: T2, panel of more than 300 wild-type and mutant kinases (313 kinase panel) (Homo sapiens, UniProt Q92630); conditions: kinase DYRK2; compound at 1 μM
T2 sequence (Q92630 1-601): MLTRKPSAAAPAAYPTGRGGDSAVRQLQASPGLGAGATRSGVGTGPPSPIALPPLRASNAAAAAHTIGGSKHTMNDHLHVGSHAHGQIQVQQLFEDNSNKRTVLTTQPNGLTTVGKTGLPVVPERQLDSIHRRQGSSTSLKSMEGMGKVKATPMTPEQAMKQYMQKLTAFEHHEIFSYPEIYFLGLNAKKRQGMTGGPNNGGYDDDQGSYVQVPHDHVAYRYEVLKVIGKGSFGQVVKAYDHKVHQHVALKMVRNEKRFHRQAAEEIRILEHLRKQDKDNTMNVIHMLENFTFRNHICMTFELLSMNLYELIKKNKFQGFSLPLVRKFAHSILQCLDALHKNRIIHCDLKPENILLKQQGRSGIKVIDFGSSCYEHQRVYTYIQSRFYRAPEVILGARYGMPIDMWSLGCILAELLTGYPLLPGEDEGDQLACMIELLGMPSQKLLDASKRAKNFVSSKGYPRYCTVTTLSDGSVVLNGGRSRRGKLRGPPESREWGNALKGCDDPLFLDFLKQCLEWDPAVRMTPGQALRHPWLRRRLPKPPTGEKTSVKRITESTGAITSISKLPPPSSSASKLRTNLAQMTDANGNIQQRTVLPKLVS

[9] = molecular target: panel of more than 300 wild-type and mutant kinases (313 kinase panel) (Homo sapiens, UniProt P07332); conditions: kinase FES; compound at 1 μM
[10] = molecular target: panel of more than 300 wild-type and mutant kinases (313 kinase panel) (Homo sapiens, UniProt P53667); conditions: kinase LIMK1; compound at 1 μM
[11] = molecular target: panel of more than 300 wild-type and mutant kinases (313 kinase panel) (Homo sapiens, UniProt Q9Y243); conditions: kinase AKT3; 1 μM compound
[12] = molecular target: panel of more than 300 wild-type and mutant kinases (313 kinase panel) (Homo sapiens, UniProt P41279); conditions: kinase COT; compound at 1 μM
Chain of panel of more than 300 wild-type and mutant kinases (313 kinase panel) (Homo sapiens, UniProt P41279) (P41279 whole entry, change not shown): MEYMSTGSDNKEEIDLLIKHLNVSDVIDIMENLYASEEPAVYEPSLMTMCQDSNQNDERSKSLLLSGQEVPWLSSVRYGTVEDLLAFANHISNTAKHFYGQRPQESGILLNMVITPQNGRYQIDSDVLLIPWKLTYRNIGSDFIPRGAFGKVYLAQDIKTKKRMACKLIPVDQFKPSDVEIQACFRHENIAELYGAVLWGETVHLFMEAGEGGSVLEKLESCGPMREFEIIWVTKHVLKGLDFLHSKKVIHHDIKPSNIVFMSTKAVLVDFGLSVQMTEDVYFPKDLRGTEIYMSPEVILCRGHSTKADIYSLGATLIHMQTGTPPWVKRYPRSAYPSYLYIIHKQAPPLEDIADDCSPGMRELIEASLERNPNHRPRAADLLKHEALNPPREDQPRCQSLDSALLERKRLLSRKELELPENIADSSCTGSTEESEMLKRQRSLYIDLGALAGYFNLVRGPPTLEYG

Chain of panel of more than 300 wild-type and mutant kinases (313 kinase panel) (Homo sapiens, UniProt Q9BUB5) (Q9BUB5 whole entry, change not shown): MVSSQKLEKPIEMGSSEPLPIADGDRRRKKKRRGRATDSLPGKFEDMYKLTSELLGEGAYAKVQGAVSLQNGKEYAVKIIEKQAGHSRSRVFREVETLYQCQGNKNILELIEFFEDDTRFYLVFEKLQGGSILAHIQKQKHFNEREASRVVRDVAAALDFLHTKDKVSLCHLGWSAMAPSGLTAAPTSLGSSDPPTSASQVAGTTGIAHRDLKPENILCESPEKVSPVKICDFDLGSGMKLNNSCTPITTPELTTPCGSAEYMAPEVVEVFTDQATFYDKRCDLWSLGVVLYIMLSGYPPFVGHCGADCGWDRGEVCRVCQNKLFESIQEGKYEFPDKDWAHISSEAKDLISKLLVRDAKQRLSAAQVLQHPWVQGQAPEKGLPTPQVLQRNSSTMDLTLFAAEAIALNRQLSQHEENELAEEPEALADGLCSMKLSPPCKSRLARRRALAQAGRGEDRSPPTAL
Chain of panel of more than 300 wild-type and mutant kinases (313 kinase panel) (Homo sapiens, UniProt P51957) (P51957 whole entry, change not shown): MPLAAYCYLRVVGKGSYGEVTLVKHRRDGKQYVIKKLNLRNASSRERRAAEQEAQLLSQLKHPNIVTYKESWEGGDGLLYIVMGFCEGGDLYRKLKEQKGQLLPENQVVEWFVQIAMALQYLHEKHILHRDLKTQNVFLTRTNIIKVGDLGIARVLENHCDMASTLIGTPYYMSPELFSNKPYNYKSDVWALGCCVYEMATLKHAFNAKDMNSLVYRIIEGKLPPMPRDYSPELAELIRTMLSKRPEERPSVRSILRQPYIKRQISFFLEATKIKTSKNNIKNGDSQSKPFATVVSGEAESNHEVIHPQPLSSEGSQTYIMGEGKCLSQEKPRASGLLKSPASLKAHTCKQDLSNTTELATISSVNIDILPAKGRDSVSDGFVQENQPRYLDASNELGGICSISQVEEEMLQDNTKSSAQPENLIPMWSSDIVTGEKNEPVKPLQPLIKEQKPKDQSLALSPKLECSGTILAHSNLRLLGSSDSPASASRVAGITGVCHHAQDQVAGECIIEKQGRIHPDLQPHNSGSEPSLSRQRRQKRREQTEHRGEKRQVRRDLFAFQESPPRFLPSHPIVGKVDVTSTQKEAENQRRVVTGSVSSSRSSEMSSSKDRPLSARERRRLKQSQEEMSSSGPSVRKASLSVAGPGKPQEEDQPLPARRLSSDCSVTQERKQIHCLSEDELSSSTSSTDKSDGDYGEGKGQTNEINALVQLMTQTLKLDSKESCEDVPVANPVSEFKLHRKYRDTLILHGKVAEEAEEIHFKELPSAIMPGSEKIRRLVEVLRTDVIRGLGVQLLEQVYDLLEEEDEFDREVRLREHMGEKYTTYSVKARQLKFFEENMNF
Chain of panel of more than 300 wild-type and mutant kinases (313 kinase panel) (Homo sapiens, UniProt Q16539) (Q16539 whole entry, change not shown): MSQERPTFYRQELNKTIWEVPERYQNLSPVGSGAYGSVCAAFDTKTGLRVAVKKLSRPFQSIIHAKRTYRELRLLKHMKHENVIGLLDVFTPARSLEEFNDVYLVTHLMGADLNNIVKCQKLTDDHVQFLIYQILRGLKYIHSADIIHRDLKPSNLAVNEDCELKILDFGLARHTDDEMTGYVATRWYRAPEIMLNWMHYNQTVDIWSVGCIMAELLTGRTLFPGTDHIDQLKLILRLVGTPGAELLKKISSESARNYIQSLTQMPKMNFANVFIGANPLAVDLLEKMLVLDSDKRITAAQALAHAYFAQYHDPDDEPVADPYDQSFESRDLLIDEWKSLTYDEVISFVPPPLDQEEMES
Chain of panel of more than 300 wild-type and mutant kinases (313 kinase panel) (Homo sapiens, UniProt Q9Y243) (Q9Y243 whole entry, change not shown): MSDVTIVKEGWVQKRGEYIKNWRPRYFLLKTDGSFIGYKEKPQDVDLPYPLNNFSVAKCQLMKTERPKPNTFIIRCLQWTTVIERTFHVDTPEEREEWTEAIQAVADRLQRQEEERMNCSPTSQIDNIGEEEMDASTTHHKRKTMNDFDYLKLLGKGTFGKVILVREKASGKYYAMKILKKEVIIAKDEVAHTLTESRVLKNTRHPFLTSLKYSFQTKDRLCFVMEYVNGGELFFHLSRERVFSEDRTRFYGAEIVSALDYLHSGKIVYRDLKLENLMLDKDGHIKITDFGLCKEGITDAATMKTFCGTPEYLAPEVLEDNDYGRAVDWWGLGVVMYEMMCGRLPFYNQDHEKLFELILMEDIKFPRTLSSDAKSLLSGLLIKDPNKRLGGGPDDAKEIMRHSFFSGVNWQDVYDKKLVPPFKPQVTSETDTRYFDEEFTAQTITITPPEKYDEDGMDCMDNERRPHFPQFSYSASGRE

Row | SMILES | %-inhibition, CK1γ1 ([1]; kinase CK1γ1, 1 μM compound) [%] | %-inhibition of FLT1 [2] [%] | %-inhibition of MNK1 ([3]; kinase MNK1, 1 μM) [%] | %-inhibition of p38α ([4]; kinase p38α, 1 μM) [%] | %-inhibition, CK1ε [5] [%] | %-inhibition of EPHA6 ([6]; kinase EPHA6, compound at 1 μM) [%] | %-inhibition of NEK4 [7] [%] | %-inhibition of DYRK2 [8] [%] | %-inhibition of FES [9] [%] | %-inhibition of LIMK1 [10] [%] | %-inhibition, AKT3 [11] [%] | %-inhibition of COT [12] [%] | %-inhibition, CK1γ1 ([1]; 1 µM) [%] | %-inhibition of MNK1 ([3]; 1 µM) [%] | %-inhibition of p38α ([4]; 1 µM) [%] | %-inhibition of EPHA6 ([6]; 1 µM) [%]
1 | O=S(=O)(c1cccc2cnccc12)N1CCCNCC1 [fasudil] | -3 | -0.73 | 15 | -7 | -4.62 | 6 | -1.87 | -1.3 | -3.78 | -7 | 6 | 12 | – | – | – | –
2 | Cc1cn(-c2cc(NC(=O)c3ccc(C)c(Nc4nccc(-c5cccnc5)n4)c3)cc(C(F)(F)F)c2)cn1 [nilotinib] | – | 32 | – | – | 0.595 | 30 | -22 | 28 | -19 | -18 | 1.58 | 2.3 | -1 | -1.26 | 92 | –
3 | CNC(=O)c1cc(Oc2ccc(NC(=O)Nc3ccc(Cl)c(C(F)(F)F)c3)c(F)c2)ccn1 [regorafenib] | -8 | 102 | 7 | 94 | -6 | 103 | -4 | 2 | -0.247 | 66 | -4.23 | -4 | – | – | – | –
4 | N#CC[C@H](C1CCCC1)n1cc(-c2ncnc3[nH]ccc23)cn1 [ruxolitinib] | -4 | 11 | 8.57 | -2.16 | 7.39 | -1.06 | -6 | -10 | 3 | 60 | 2 | -3.66 | – | – | – | –
5 | CO[C@H]1C[C@@H]2CC[C@@H](C)[C@@](O)(O2)C(=O)C(=O)N2CCCC[C@H]2C(=O)O[C@H]([C@H](C)C[C@@H]2CC[C@@H](OC(=O)C(C)(CO)CO)[C@H](OC)C2)CC(=O)[C@H](C)/C=C(\C)[C@@H](O)[C@@H](OC)C(=O)[C@H](C)C[C@H](C)/C=C/C=C/C=C/1C [temsirolimus] | -4.47 | -2 | -19 | -5 | -7 | 0.437 | 0.416 | -3.63 | -4.68 | -5 | -1.72 | 8 | – | – | – | –
6 | CC(=O)Nc1cccc(-n2c(=O)n(C3CC3)c(=O)c3c(Nc4ccc(I)cc4F)n(C)c(=O)c(C)c32)c1 [trametinib] | 0.211 | -2.75 | -3 | -4 | -5.38 | – | 2 | -0.0865 | -1.55 | -1.84 | -5.3 | 13 | – | – | – | -2.51
7 | CCCS(=O)(=O)Nc1ccc(F)c(C(=O)c2c[nH]c3ncc(-c4ccc(Cl)cc4)cc23)c1F [vemurafenib] | -2 | 25 | 23 | 10 | 2.46 | 37 | -0.416 | 1 | 18 | 45 | -0.678 | 4.34 | – | – | – | –
